Bridge positions count the residues as written; N and C are the ends. Ends that are not written are not given here. Peptide text beside a SMILES is read from it.
What was measured:
mice = settings: intracerebroventricular inoculation; cited from earlier work
Procedure: It has been reported that the lethality of MCa on mice after intracerebroventricular inoculation (LD50=20 μg/mouse); however, the molecular basis remains unsolved so far.

rKv1.1 = biological target: T1, rKv1.1 (Rattus norvegicus, UniProt P10499); experiment: two-electrode voltage-clamp, rKv1.1 in Xenopus oocytes; assay type: cell-based
T1 construct: expressed in transfected cells; host or cells: Xenopus oocytes injected with cRNA (clone in pGEM, T7 promoter)
Procedure: (§1) For the expression of Kv channels (rKv1.1–rKv1.4 and Shaker IR) and Nav channels (rNav1.1, rNav1.2, rNav1.4, rNav1.5 and mNav1.6) in Xenopus oocytes, the linearized plasmids were transcribed with the T7 or SP6 mMESSAGE-mMACHINE transcription kits (Supplementary Table S2, available at http://www.bioscirep.org/bsr/033/bsr033e047add.htm). Oocytes were digested for 1–2 h at room temperature in Ca^2+-free ND96 (in mM: NaCl, 96; KCl, 2; […]; MgCl2, 2 and Hepes, 5, adjusted to pH 7.4 with NaOH) containing 0.5 mg/ml collagenase (type I, sigma). Oocytes were injected with 0.5 ng of cRNA by NANOLITER 2000 (World Precision Instruments Inc.). The oocytes were incubated in ND96 solution supplemented with 50 mg/l gentamycin sulfate at 18°C.
(§2) Ion channel currents were recorded 1–3 days after injection with Oocyte Clamp OC-725C (Warner Instument Corp.) and Digidata 1440A (Axon CNS, Molecular Devices) controlled by pCLAMP10 software (Axon). […] All data were recorded from at least three independent oocytes (n≥3) and are presented as mean±S.E.. […] Data were analysed by pCLAMP 10 (Molecular Devices) and SigmaPlot 10.0 (Systat Software).

[1] = biological target: T2, Drosophila Shaker channel (Shaker IR) (Drosophila melanogaster, UniProt P08510, DEL6-46); experiment: two-electrode voltage-clamp, Shaker channel in Xenopus oocytes; assay type: cell-based; settings: for activity on the Shaker channel after C-terminal modification: Figure 6 modified peptides at 10 μM, n=3, GP deletion: results not shown
T2 construct: expressed in transfected cells; host or cells: Xenopus oocytes injected with cRNA (clone in pBluescript, T7 promoter)
Procedure: as §1
Ion channel currents were recorded 1–3 days after injection with Oocyte Clamp OC-725C (Warner Instument Corp.) and Digidata 1440A (Axon CNS, Molecular Devices) controlled by pCLAMP10 software (Axon). Pipettes were pulled by P-97 FLAMING/BROWN Micropipette Puller (Sutter Instrument Co.) with resistance of 0.1–1.0 MΩ when filled with 3 M KCl. rKv1.1–rKv1.4 and Shaker currents were evoked by 250 ms depolarization to 0 mV followed by a 250 ms pulse to −50 mV, from a holding potential of −90 mV. rNav1.1, 1.2, 1.4, 1.5 and mNav1.6 currents were evoked by 100 ms depolarization to −10 mV from a holding potential of −90 mV. All data were recorded from at least three independent oocytes (n≥3) and are presented as mean±S.E.. Leak subtraction was carried out with a P/4 protocol. Data were analysed by pCLAMP 10 (Molecular Devices) and SigmaPlot 10.0 (Systat Software).

[2] = stability to non-enzymatic hydrolysis during oxidative refolding; assay type: physicochemical; settings: 0.1 M Tris–HCl pH 8.0, 0.5 mM peptide, 25°C, 48 h; for chemical stability (non-enzymatic hydrolysis, Val35–Gly36 peptide bond): RP-HPLC / MALDI-TOF-MS
Procedure: λ-MK1 and λ-MK1a in their reduced form were chemically synthesized by ChinaPeptides Co., Ltd. and Scilight-Peptide Inc., respectively. For oxidative refolding, peptide samples were dissolved in 0.1 M Tris–HCl buffer (pH 8.0) to a final concentration of 0.5 mM and incubated at 25°C for 48 h. Peptides were purified by RP-HPLC (reversed-phase HPLC). Purity and molecular masses of peptides were determined by MALDI-TOF-MS on a Kratos PC Axima CFR plus (Shimadzu Co. LTD).

[3] = tested on: sarcoplasmic reticulum Ca^2+ release channels/ryanodine receptors of skeletal and cardiac muscles; settings: cited from earlier work
Source text: The ICK fold is an exceptionally stable structural motif comprising an embedded ring formed by two disulfide bridges (Cys^1–Cys^4 and Cys^2–Cys^5) and their connecting backbone segments, which is threaded by a third disulfide bridge (Cys^3–Cys^6).

Na^+ channel = tested on: Na^+ channel; design: method as in PMID 21665957; settings: cited from earlier work
[4] = tested on: apamin-sensitive SKCa channels; settings: cited from earlier work
Source text: This is further strengthened by the evolutionary conservation of these two residues in all the members of λ-KTx subgroup. To further investigate the functional significance of this region, we carried out C-terminal amidation, a common post-translational modification for many toxins from venoms of scorpions, spiders and cone snails. The amidated peptide (named λ-MK1a) was oxi ...

rKv1.4 = experiment: two-electrode voltage-clamp, rKv1.4 in Xenopus oocytes; assay type: cell-based; settings: 10 μM, 250 ms depolarization to 0 mV from −90 mV, mean±S.E. (n=3)
Procedure: as §1, §2

rKv1.3 = experiment: two-electrode voltage-clamp, rKv1.3 in Xenopus oocytes; assay type: cell-based; settings: 10 μM, 250 ms depolarization to 0 mV from −90 mV, mean±S.E. (n=3)
Procedure: as §1, §2

rKv1.2 = experiment: two-electrode voltage-clamp, rKv1.2 in Xenopus oocytes; assay type: cell-based; settings: 10 μM, 250 ms depolarization to 0 mV from −90 mV, mean±S.E. (n=3)
Procedure: as §1, §2

[5] = biological target: rKv1.1 (not stated (printed rKv1.1, called mammalian; r read as rat)) (UniProt P10499)
[6] = biological target: rKv1.4 (not stated (printed rKv1.4, called mammalian; r read as rat)) (UniProt P15385)
[7] = biological target: rKv1.2 (not stated (printed rKv1.1-rKv1.4, called mammalian; r read as rat)) (UniProt P63142)
[8] = biological target: rKv1.3 (not stated (printed rKv1.1-rKv1.4, called mammalian; r read as rat)) (UniProt P15384)
[9] = biological target: Drosophila Shaker K+ channel (Shaker IR) (Drosophila) (UniProt P08510)
[10] = biological target: rKv1.1 (not stated (printed rKv1.1, called mammalian; r read as rat)) (UniProt P10499); remark: listed apart in the source

T2 sequence (P08510 with tags, fused parts or gaps DEL6-46): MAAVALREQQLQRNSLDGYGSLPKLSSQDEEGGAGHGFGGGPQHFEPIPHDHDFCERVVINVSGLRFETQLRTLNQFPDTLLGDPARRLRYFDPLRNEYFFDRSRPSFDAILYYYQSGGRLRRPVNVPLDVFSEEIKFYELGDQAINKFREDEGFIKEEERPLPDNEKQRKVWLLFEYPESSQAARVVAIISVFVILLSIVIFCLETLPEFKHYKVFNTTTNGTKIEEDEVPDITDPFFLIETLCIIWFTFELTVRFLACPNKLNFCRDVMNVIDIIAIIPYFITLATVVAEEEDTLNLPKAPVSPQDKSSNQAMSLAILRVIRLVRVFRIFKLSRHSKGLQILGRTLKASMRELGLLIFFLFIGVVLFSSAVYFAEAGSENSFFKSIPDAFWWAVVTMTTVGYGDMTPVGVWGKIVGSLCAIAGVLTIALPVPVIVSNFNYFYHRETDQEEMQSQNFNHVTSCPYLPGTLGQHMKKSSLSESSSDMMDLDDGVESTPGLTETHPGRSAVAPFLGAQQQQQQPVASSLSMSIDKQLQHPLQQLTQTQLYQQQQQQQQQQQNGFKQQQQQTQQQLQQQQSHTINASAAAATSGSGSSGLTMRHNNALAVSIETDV
T1 sequence (P10499 whole entry): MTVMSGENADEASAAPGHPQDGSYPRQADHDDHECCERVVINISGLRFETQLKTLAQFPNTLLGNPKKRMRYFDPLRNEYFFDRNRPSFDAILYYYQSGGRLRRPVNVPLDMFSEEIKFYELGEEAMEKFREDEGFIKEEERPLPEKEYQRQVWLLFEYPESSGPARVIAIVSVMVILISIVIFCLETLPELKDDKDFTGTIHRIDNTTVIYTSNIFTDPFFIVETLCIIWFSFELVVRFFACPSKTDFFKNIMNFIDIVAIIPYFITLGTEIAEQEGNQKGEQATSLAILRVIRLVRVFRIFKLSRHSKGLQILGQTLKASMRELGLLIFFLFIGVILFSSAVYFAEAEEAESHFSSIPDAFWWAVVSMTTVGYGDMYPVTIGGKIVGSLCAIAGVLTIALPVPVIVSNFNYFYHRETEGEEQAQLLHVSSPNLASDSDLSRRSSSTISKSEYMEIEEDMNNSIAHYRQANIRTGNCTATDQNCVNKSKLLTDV
Sequence of rKv1.1 (not stated (printed rKv1.1, called mammalian; r read as rat)) (P10499 whole entry): as above
Sequence of rKv1.2 (not stated (printed rKv1.1-rKv1.4, called mammalian; r read as rat)) (P63142 whole entry): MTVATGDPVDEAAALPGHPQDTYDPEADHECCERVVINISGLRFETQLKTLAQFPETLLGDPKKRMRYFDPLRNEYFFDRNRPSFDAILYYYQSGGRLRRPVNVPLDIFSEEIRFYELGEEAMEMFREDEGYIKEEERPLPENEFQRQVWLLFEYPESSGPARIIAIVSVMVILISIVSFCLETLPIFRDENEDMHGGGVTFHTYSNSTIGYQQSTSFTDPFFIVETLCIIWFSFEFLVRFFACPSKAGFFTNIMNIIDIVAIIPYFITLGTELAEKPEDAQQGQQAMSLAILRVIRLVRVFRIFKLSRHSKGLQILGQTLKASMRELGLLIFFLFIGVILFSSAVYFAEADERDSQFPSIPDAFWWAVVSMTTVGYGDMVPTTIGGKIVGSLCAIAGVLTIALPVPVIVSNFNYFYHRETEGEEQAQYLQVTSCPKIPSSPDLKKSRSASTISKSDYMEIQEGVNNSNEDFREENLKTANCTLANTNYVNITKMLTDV
Sequence of Drosophila Shaker K+ channel (Shaker IR) (Drosophila) (P08510 whole entry): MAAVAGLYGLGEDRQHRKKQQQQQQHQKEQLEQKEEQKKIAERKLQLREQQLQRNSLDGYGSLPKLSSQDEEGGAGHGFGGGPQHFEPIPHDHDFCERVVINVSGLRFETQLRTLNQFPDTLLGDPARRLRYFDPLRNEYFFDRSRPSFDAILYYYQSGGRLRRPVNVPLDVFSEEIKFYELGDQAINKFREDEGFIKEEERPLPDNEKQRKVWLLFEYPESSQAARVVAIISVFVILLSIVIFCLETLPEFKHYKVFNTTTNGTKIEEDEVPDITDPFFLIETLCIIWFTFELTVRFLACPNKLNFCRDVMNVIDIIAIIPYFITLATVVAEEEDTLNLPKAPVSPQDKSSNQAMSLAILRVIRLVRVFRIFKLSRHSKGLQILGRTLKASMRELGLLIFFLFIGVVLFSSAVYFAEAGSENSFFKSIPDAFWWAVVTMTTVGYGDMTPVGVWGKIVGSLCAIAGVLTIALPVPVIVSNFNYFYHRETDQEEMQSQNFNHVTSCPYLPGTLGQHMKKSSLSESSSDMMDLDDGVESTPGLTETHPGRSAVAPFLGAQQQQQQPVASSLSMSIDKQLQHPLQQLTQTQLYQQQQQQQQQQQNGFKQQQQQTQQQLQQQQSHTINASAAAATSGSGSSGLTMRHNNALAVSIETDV
Sequence of rKv1.4 (not stated (printed rKv1.4, called mammalian; r read as rat)) (P15385 whole entry): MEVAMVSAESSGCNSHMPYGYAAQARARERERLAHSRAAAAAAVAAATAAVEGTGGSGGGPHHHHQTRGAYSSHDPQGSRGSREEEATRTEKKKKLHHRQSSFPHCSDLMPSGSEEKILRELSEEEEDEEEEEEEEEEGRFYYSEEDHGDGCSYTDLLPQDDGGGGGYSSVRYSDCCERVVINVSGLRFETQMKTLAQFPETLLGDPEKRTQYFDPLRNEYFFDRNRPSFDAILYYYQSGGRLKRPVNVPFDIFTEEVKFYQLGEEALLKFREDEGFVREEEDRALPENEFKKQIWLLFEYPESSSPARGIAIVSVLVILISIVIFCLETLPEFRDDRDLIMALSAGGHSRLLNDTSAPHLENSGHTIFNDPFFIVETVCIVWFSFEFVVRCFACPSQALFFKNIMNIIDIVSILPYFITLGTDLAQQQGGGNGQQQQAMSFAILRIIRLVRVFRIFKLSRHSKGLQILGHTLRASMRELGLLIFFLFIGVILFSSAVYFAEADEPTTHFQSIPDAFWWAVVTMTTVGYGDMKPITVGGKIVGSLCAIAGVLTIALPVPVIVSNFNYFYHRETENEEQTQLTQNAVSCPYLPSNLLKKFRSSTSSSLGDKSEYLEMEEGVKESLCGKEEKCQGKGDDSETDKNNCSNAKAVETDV
Sequence of rKv1.3 (not stated (printed rKv1.1-rKv1.4, called mammalian; r read as rat)) (P15384 whole entry): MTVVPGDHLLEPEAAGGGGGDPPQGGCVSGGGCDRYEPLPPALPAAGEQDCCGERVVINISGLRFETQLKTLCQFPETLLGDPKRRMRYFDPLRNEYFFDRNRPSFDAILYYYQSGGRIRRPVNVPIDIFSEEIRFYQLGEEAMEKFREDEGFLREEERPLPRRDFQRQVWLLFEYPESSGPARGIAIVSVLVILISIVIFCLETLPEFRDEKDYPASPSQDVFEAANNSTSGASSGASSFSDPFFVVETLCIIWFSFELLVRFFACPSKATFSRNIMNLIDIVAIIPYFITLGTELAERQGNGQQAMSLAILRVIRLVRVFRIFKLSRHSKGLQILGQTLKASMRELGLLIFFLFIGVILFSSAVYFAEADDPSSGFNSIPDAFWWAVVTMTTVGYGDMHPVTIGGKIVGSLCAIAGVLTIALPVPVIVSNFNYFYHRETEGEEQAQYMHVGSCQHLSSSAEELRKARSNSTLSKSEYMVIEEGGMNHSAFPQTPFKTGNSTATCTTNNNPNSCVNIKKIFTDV

CC[C@H](C)[C@@H]1NC(=O)[C@H](CC(N)=O)NC(=O)[C@H]([C@@H](C)O)NC(=O)CNC(=O)[C@H](CCCNC(=N)N)NC(=O)[C@H](CCCNC(=N)N)NC(=O)[C@H](CCCCN)NC(=O)[C@@H]2CSSC[C@@H]3NC(=O)[C@H](CC(C)C)NC(=O)[C@H](CCCCN)NC(=O)[C@H](CC(C)C)NC(=O)[C@H](Cc4c[nH]cn4)NC(=O)[C@@H]4CCCN4C(=O)[C@H](CC(C)C)NC(=O)[C@@H](NC(=O)[C@H](CC(=O)O)NC(=O)CN)CSSC[C@H](NC(=O)[C@H](CSSC[C@@H](C(=O)N[C@@H](CCCNC(=N)N)C(=O)O)NC(=O)[C@H](CCCNC(=N)N)NC(=O)[C@H](CCCCN)NC(=O)[C@H](CCC(=O)O)NC1=O)NC(=O)[C@H](CC(=O)O)NC(=O)[C@H](CCCCN)NC(=O)[C@H](CC(N)=O)NC(=O)[C@H](CCC(=O)O)NC(=O)[C@H](CCCCN)NC3=O)C(=O)N[C@@H](CO)C(=O)N[C@@H](CCCCN)C(=O)N[C@@H](CCCCN)C(=O)N2 [MCa, reference compound] (H-GDCLPHLKLCKENKDCCSKKCKRRGTNIEKRCR-OH; disulfide 3-17, 10-21, 16-32)
LD50 (mice): 20 μg/mouse | IC50 (rKv1.1; dose-response, each point mean±S.E. (n=3), read-out: IC50, inhibition of rKv1.1 currents): 21.9 ± 1.04 µM

CC[C@H](C)[C@@H]1NC(=O)[C@@H]2CSSC[C@@H]3NC(=O)[C@H](CCCCN)NC(=O)[C@H](CCCCN)NC(=O)[C@H](CC(N)=O)NC(=O)[C@H](CC(C)C)NC(=O)[C@H](CCCNC(=N)N)NC(=O)[C@H](CC(N)=O)NC(=O)[C@@H](NC(=O)CN)CSSC[C@H](NC(=O)[C@H](CSSC[C@@H](C(=O)N[C@@H](CCCNC(=N)N)C(=O)N4CCC[C@H]4C(=O)N[C@@H](CC(=O)O)C(=O)N[C@H](C(=O)NCC(=O)N4CCC[C@H]4C(=O)O)C(C)C)NC(=O)[C@H](Cc4ccc(O)cc4)NC(=O)[C@H](Cc4ccc(O)cc4)NC(=O)[C@H](CC(N)=O)NC(=O)[C@H](C(C)C)NC(=O)CNC(=O)[C@H]([C@@H](C)O)NC(=O)[C@H](CO)NC1=O)NC(=O)[C@H](CC(=O)O)NC(=O)[C@H](C)NC(=O)[C@H](CC(=O)O)NC(=O)[C@H](CO)NC(=O)[C@H](CC(N)=O)NC3=O)C(=O)N[C@@H](CCCNC(=N)N)C(=O)N[C@@H](Cc1ccc(O)cc1)C(=O)NCC(=O)N[C@@H](CCC(=O)O)C(=O)N[C@@H](CCCNC(=N)N)C(=O)N2 [λ-MK1] (H-GCNRLNKKCNSDADCCRYGERCISTGVNYYCRPDVGP-OH; disulfide 2-16, 9-22, 15-31)
reduction of Shaker channel currents ([1]; 10 μM, Xenopus oocytes, 250 ms depolarization to 0 mV from −90 mV, mean±S.E. (n=3)): 44.7±10.2% | IC50 ([1]; dose-response fitted by Hill equation, each point mean±S.E. (n=3), read-out: peptide concentration at half-maximal efficacy (IC50), Shaker channel): 12.3 ± 0.96 µM | chemical stability (non-enzymatic hydrolysis, Val35–Gly36 peptide bond) [2]: instability of a peptide bond between Val^35 and Gly^36 in an alkaline environment

imperatoxin A (GDCLPHLKRCKADNDCCGKKCKRRGTNAEKRCR; UniProt P59868 1-33, looked up)
activation of Ca2+ release channels/ryanodine receptors [3]: activators of sarcoplasmic reticulum Ca^2+ release channels/ryanodine receptors of skeletal and cardiac muscles

jingzhaotoxin-III: tarantula toxin, an Na^+ channel blocker with an ICK fold (DGECGGFWWKCGRGKPPCCKGYACSKTWGWCAVEAP; also: ICK fold, disulfide pairing not given here; UniProt P62520 28-63, looked up)
Na+ channel block (Na^+ channel): Na^+ channel blocker

leiurotoxin I: a scorpion α-KTx (AFCNLRMCQLSCRSLGLLGKCIGDKCECVKH; ends and bridges not checked; cysteine pairing not given here; UniProt P16341 1-31, looked up)
effect of C-terminal amidation on affinity for apamin-sensitive SKCa channels [4]: increase the affinity

λ-MK1a: the amidated peptide of λ-MK1, three disulfide bridges (GCNRLNKKCNSDADCCRYGERCISTGVNYYCRPDFGP-NH2; disulfide (positions not given here))
current reduction of rKv1.4 (rKv1.4): 35.7±4.26% | activity on the Shaker channel after C-terminal modification ([1]; Xenopus oocytes): switched the target of λ-MK1 from the Shaker channel to mammalian Kv channels | activity on the Shaker channel after C-terminal modification ([1]; Xenopus oocytes, listed as C-terminal amidation): loss of activity on the Shaker channel | chemical stability (non-enzymatic hydrolysis, Val35–Gly36 peptide bond) [2]: completely inhibited the non-enzymatic hydrolysis of the peptide | refolding efficiency ([2]; RP-HPLC, relative to λ-MK1): largely improved its refolding efficiency | current reduction of rKv1.3 (rKv1.3): 9.0±3.2% | current reduction of rKv1.2 (rKv1.2): 25.3±3.6% | current reduction of rKv1.1 (rKv1.1; 10 μM, 250 ms depolarization to 0 mV from −90 mV, mean±S.E. (n=3)): 7.7±1.8%

B1: λ-MK1a (peptide)
chain: GCNRLNKKCNSDADCCRYGERCISTGVNYYCRPDFGP-NH2
modifications: disulfide (positions not given here); not fully specified (bridges); ends not checked; also: three disulfide bridges, pairing not given here
reduction of rKv1.1 currents at 10 μM peptide, two-electrode voltage clamp in Xenopus oocytes [5]: 7.7% | reduction of rKv1.4 currents at 10 μM peptide, two-electrode voltage clamp in Xenopus oocytes [6]: 35.7% | reduction of rKv1.2 currents at 10 μM peptide, two-electrode voltage clamp in Xenopus oocytes [7]: 25.3% | reduction of rKv1.3 currents at 10 μM peptide, two-electrode voltage clamp in Xenopus oocytes [8]: 9%

GCNRLNKKCNSDADCCRYGERCISTGVNYYCRPDFGP [λ-MeuKTx-1]
reduction of Shaker channel currents at 10 μM peptide, two-electrode voltage clamp in Xenopus oocytes [9]: 44.7%

GDCLPHLKLCKENKDCCSKKCKRRGTNIEKRCR [maurocalcine]
IC50 of inhibition of rKv1.1 currents, dose-response, two-electrode voltage clamp in Xenopus oocytes [10]: 21.9 µM

From article PMC3694633, “Functional evolution of scorpion venom peptides with an inhibitor cystine knot fold” (Bioscience Reports, 2013)
